# From patent US3968207A, “Method of controlling fleas and ticks on cats and dogs” (priority 1975, dated 1976)
# Experiments:
# [1] = Toxicity (general statement); assay type: in vivo, dogs and cats; conditions: at concentrations many times that of the actual amounts employed
# Ctenocephalides felis = assay: 2% pressurized spray for control of fleas on dogs; assay type: in vivo
# Protocol: An experiment was carried out on dogs obtained from a licensed laboratory animal dealer. These dogs were mixed breeds and of different size and sex. The dogs were individually housed in cages with absorbent paper placed under each in order to count dead fleas. A mixture containing 2% O,O,O',O'-tetramethyl O,O'-thiodi-p-phenylene phosphorothioate (active ingredient) and having the following formula was used as a pressurized spray: […]
# Two tests were carried out, one with 22 dogs and the other with 21 dogs, each test using 5 control dogs. Each dog was treated with approximately 60 mg./kg. of O,O,O',O'-tetramethyl O,O'-thiodi-p-phenylene phosphorothioate using the formulation described above. Each dog was infested with 100 1-day old adult C. felis 72 hours prior to spray treatment and reinfested on a weekly basis for 7 weeks, beginning 7 days after treatment. The five control dogs were treated with a blank spray containing everything except the active ingredient. After treatment or each reinfestation, daily examinations of each dog were made up to 7 days or until no live fleas could be found. Once a live flea was found, the dog was considered still infested even though the flea population may have been low. The number of dead fleas recovered from papers under the cages are expressed as average dead on treated/average dead on control are summarized in Table XVII.
compound,measurement,setting,value
"COP(=S)(OC)Oc1ccc(Sc2ccc(OP(=S)(OC)OC)cc2)cc1 [O,O,O',O'-tetramethyl O,O'-thiodi-p-phenylene phosphorothioate]",toxicity,[1],substantially non-toxic
same,Percent of Dogs with Control,"Ctenocephalides felis; 60 mg/kg 2% pressurized spray, week 0",100%
same,Percent of Dogs with Control,"Ctenocephalides felis; 60 mg/kg 2% pressurized spray, week 1",100%
same,Percent of Dogs with Control,"Ctenocephalides felis; 60 mg/kg 2% pressurized spray, week 2",100%
same,Percent of Dogs with Control,"Ctenocephalides felis; 60 mg/kg 2% pressurized spray, week 3",100%
same,Percent of Dogs with Control,"Ctenocephalides felis; 60 mg/kg 2% pressurized spray, week 4",97.6%
same,Percent of Dogs with Control,"Ctenocephalides felis; 60 mg/kg 2% pressurized spray, week 5",95.2%
same,Percent of Dogs with Control,"Ctenocephalides felis; 60 mg/kg 2% pressurized spray, week 6",82.9%
same,Percent of Dogs with Control,"Ctenocephalides felis; 60 mg/kg 2% pressurized spray, week 7",58.5%
same,"Avg. Dead on Treated, Average on Two Tests","Ctenocephalides felis; 60 mg/kg, week 0, control 2.0",36.3
same,"Avg. Dead on Treated, Average on Two Tests","Ctenocephalides felis; 60 mg/kg, week 1, control 5.6",41.4
same,"Avg. Dead on Treated, Average on Two Tests","Ctenocephalides felis; 60 mg/kg, week 2, control 3.0",41.2
same,"Avg. Dead on Treated, Average on Two Tests","Ctenocephalides felis; 60 mg/kg, week 3, control 4.8",41.2
same,"Avg. Dead on Treated, Average on Two Tests","Ctenocephalides felis; 60 mg/kg, week 4, control 5.2",40.7
same,"Avg. Dead on Treated, Average on Two Tests","Ctenocephalides felis; 60 mg/kg, week 5, control 5.6",36.0
same,"Avg. Dead on Treated, Average on Two Tests","Ctenocephalides felis; 60 mg/kg, week 6, control 4.8",30.0
same,"Avg. Dead on Treated, Average on Two Tests","Ctenocephalides felis; 60 mg/kg, week 7, control 4.8",26.3
same,Number of Dogs on Which Fleas were Controlled,"Ctenocephalides felis; Combination of Test 1 & 2, 60 mg/kg, week 0, of 43",43 dogs
same,Number of Dogs on Which Fleas were Controlled,"Ctenocephalides felis; Combination of Test 1 & 2, 60 mg/kg, week 1, of 43",43 dogs
same,Number of Dogs on Which Fleas were Controlled,"Ctenocephalides felis; Combination of Test 1 & 2, 60 mg/kg, week 2, of 43",43 dogs
same,Number of Dogs on Which Fleas were Controlled,"Ctenocephalides felis; Combination of Test 1 & 2, 60 mg/kg, week 3, of 42",42 dogs
same,Number of Dogs on Which Fleas were Controlled,"Ctenocephalides felis; Combination of Test 1 & 2, 60 mg/kg, week 4, of 42",41 dogs
same,Number of Dogs on Which Fleas were Controlled,"Ctenocephalides felis; Combination of Test 1 & 2, 60 mg/kg, week 5, of 42",40 dogs
same,Number of Dogs on Which Fleas were Controlled,"Ctenocephalides felis; Combination of Test 1 & 2, 60 mg/kg, week 6, of 41",34 dogs
same,Number of Dogs on Which Fleas were Controlled,"Ctenocephalides felis; Combination of Test 1 & 2, 60 mg/kg, week 7, of 41",24 dogs
same,Number of Dogs on Which Fleas were Controlled,"Ctenocephalides felis; Experiment 1, 60 mg/kg 2% pressurized spray, week 0, of 22",22 dogs
same,Number of Dogs on Which Fleas were Controlled,"Ctenocephalides felis; Experiment 1, 60 mg/kg 2% pressurized spray, week 1, of 22",22 dogs
same,Number of Dogs on Which Fleas were Controlled,"Ctenocephalides felis; Experiment 1, 60 mg/kg 2% pressurized spray, week 2, of 22",22 dogs
same,Number of Dogs on Which Fleas were Controlled,"Ctenocephalides felis; Experiment 1, 60 mg/kg 2% pressurized spray, week 3, of 22",22 dogs
same,Number of Dogs on Which Fleas were Controlled,"Ctenocephalides felis; Experiment 1, 60 mg/kg 2% pressurized spray, week 4, of 22",22 dogs
same,Number of Dogs on Which Fleas were Controlled,"Ctenocephalides felis; Experiment 1, 60 mg/kg 2% pressurized spray, week 5, of 22",22 dogs
same,Number of Dogs on Which Fleas were Controlled,"Ctenocephalides felis; Experiment 1, 60 mg/kg 2% pressurized spray, week 6, of 22**",20 dogs
same,Number of Dogs on Which Fleas were Controlled,"Ctenocephalides felis; Experiment 1, 60 mg/kg 2% pressurized spray, week 7, of 21",12 dogs
same,Number of Dogs on Which Fleas were Controlled,"Ctenocephalides felis; Experiment 2, 60 mg/kg 2% pressurized spray, week 0, of 21",21 dogs
same,Number of Dogs on Which Fleas were Controlled,"Ctenocephalides felis; Experiment 2, 60 mg/kg 2% pressurized spray, week 1, of 21",21 dogs
same,Number of Dogs on Which Fleas were Controlled,"Ctenocephalides felis; Experiment 2, 60 mg/kg 2% pressurized spray, week 2, of 21",21 dogs
same,Number of Dogs on Which Fleas were Controlled,"Ctenocephalides felis; Experiment 2, 60 mg/kg 2% pressurized spray, week 3, of 20**",20 dogs
same,Number of Dogs on Which Fleas were Controlled,"Ctenocephalides felis; Experiment 2, 60 mg/kg 2% pressurized spray, week 4, of 20",19 dogs
same,Number of Dogs on Which Fleas were Controlled,"Ctenocephalides felis; Experiment 2, 60 mg/kg 2% pressurized spray, week 5, of 20",18 dogs
same,Number of Dogs on Which Fleas were Controlled,"Ctenocephalides felis; Experiment 2, 60 mg/kg 2% pressurized spray, week 6, of 20",14 dogs
same,Number of Dogs on Which Fleas were Controlled,"Ctenocephalides felis; Experiment 2, 60 mg/kg 2% pressurized spray, week 7, of 20",12 dogs
same,Avg. Dead on Treated,"Ctenocephalides felis; Test 1, 60 mg/kg, week 0, control 38",34.6
same,Avg. Dead on Treated,"Ctenocephalides felis; Test 1, 60 mg/kg, week 1, control 10.4",38.2
same,Avg. Dead on Treated,"Ctenocephalides felis; Test 1, 60 mg/kg, week 2, control 3.4",42.1
same,Avg. Dead on Treated,"Ctenocephalides felis; Test 1, 60 mg/kg, week 3, control 4.6",41.6
same,Avg. Dead on Treated,"Ctenocephalides felis; Test 1, 60 mg/kg, week 4, control 5.4",37.8
same,Avg. Dead on Treated,"Ctenocephalides felis; Test 1, 60 mg/kg, week 5, control 5.0",34.1
same,Avg. Dead on Treated,"Ctenocephalides felis; Test 1, 60 mg/kg, week 6, control 6.2",34.1
same,Avg. Dead on Treated,"Ctenocephalides felis; Test 1, 60 mg/kg, week 7, control 6.6",30.8
same,Avg. Dead on Treated,"Ctenocephalides felis; Test 2, 60 mg/kg, week 0, control .2",38.0
same,Avg. Dead on Treated,"Ctenocephalides felis; Test 2, 60 mg/kg, week 1, control .8",44.5
same,Avg. Dead on Treated,"Ctenocephalides felis; Test 2, 60 mg/kg, week 2, control 2.6",40.3
same,Avg. Dead on Treated,"Ctenocephalides felis; Test 2, 60 mg/kg, week 3, control 5.0",40.7
same,Avg. Dead on Treated,"Ctenocephalides felis; Test 2, 60 mg/kg, week 4, control 5.0",43.6
same,Avg. Dead on Treated,"Ctenocephalides felis; Test 2, 60 mg/kg, week 5, control 6.2",37.9
same,Avg. Dead on Treated,"Ctenocephalides felis; Test 2, 60 mg/kg, week 6, control 3.5",26.0
same,Avg. Dead on Treated,"Ctenocephalides felis; Test 2, 60 mg/kg, week 7, control 3.0",21.8
